Converted amounts (≈) assume the structure as drawn.
Experiments:
[1] = In vitro release of drugs from nanoliposomes in adult bovine serum at 37° C.; format: in vitro ADME; conditions: drug encapsulated in nSSL
Method: For studying the effect of biological fluids, drug loaded nSSLs were incubated up to 96 h at 37° C. in adult bovine serum (Biological Industries, Beit Haemek, Israel).

[2] = test system: Daoy medulloblastoma cells; test: MTT cytotoxicity and median-effect (CI) analysis, Daoy; conditions: for Fractional kill (fa): 72 h MTT; for Dx (Dx1, Dx2, Dx12: dose for effect level fa): doses of Table 1 (ng/ml);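 on all read-outs here: drugs applied at fixed ratios over eight concentrations for 72 h, survival expressed against untreated control wells, affected fraction (fa) derived per well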
Method: Human medulloblastoma (Daoy) cells, colon cancer (SW480) cells and neuroblastoma (NB-EB) cells were exposed to fixed ratios at eight concentrations of drugs for 72 hours along the profile of the most cytotoxic drug. Viable cells were quantified using standard MTT assay (T. Mosmann, Rapid colorimetric assay for cellular growth and survival: application to proliferation and cytotoxicity assays. J Immunol Methods 65(1-2) (1983) 55-63).
Test data were converted to a percentage mean cell survival value relative to untreated control wells. The fraction of affected cells (fa) was subsequently determined for each well.
The median effect analysis uses the combination index (CI) value as a quantitative indicator of the degree of synergy or antagonism. Using this analysis method, CI=1.0 reflects additive activity, CI>1 signifies antagonism, and CI<1.0 indicates synergy.
Firstly, in vitro cytotoxicity of VCR, TPT and their combinations was evaluated using the median-effect analysis of Chou et al [T. C. […] The selection of this drug interaction analysis method was based on its suitability for assessing whether drugs interact synergistically (CI<1.0), additively (CI f 1.0), or antagonistically (CI>1.0) as a function of drug concentration for different fixed drug/drug ratios.

SW480 (colon) tumors = test: Efficacy against SW480 (colon) tumors in nude mice, Kaplan-Meier; conditions: SW480 tumors s.c., i.v. at days 17, 23 and 29
Method: Nine mice were treated in each group. All mice received injections through the tail vain at days 17, 23 and 29.
Approximately 4 million Daoy and SW480 tumor cells were inoculated subcutaneously (s.c.) in the back of 5 weeks old NUDE-Hsd:Athymic mice. Tumor weights were determined according to the equation (length×width^2)/2 using direct caliper measurements (D. M. Euhus, C. Hudd, M. C. LaRegina, F. E. Johnson, Tumor measurement in the nude mouse. J Surg Oncol 31(4) (1986) 229-234; M. M. Tomayko, C. P. Reynolds, Determination of subcutaneous tumor size in athymic (nude) mice. Cancer Chemother Pharmacol 24(3) (1989) 148-154).
The statistical significance between different treatment groups was determined using Mood's median test [A. M. Mood, Introduction to the theory of statistics, McGraw-Hill, New York, 1950.].

[3] = Physicochemical properties of VCR and TPT
Excerpt: The need to develop one liposome that includes two drugs at a specific predefined mole ratio required optimization of the loading conditions and “crosstalk” with the drugs. For this, physiochemical characterization of the two drugs is required.

[4] = Maximum tolerated dose (MTD); parameters: species or system mice; conditions: mouse, in vivo; ≦15% body weight loss nadir lasting ≦2 days
Method: The MTD is determined in clinical trials by testing increasing doses on different groups of people until the highest dose with acceptable side effects is found. For each drug, the MTD as determined in clinical trials is then available via publicly available sources such as SciFinder which is the On Line search engine of The American Chemical Society for various information including MTD (in animals as well as in humans). […] In this context, the “MTD ratio” between two drugs is the ratio between the MTD determined for each drug.
Tumor volume, survival, and body weight were monitored 2-3 times per week.

in vivo = conditions: nude, mouse, plasma, iv
[5] = Pharmacokinetics in tumor-bearing nude mice after i.v. administration; conditions: eight hours post injection, based on AUC value

| Compound | release kinetics order [1] | m (slope, Hill-type coefficient of the dose-effect curve) ([2]; Daoy cells) | Dx (Dx1, Dx2, Dx12: dose for effect level fa) ([2]; fa 0.1) | Dx (Dx1, Dx2, Dx12: dose for effect level fa) ([2]; fa 0.2) | Dx (Dx1, Dx2, Dx12: dose for effect level fa) ([2]; fa 0.3) | Dx (Dx1, Dx2, Dx12: dose for effect level fa) ([2]; fa 0.4) | Dx (Dx1, Dx2, Dx12: dose for effect level fa) ([2]; fa 0.5) | Dx (Dx1, Dx2, Dx12: dose for effect level fa) ([2]; fa 0.6) | Dx (Dx1, Dx2, Dx12: dose for effect level fa) ([2]; fa 0.7) | Dx (Dx1, Dx2, Dx12: dose for effect level fa) ([2]; fa 0.8) | Dx (Dx1, Dx2, Dx12: dose for effect level fa) ([2]; fa 0.9) | pKa [3] | solubility ([3]; pH 6, aqueous buffer) [µM] | solubility ([3]; pH 8, aqueous buffer) [µM] | AUC (in vivo) [ng·h/mL] | Cmax (in vivo) [ng/mL] | MRT (in vivo) [h] | clearance (in vivo) [mL/min] | half-life (in vivo) [min] | further results |
| --- | --- | --- | --- | --- | --- | --- | --- | --- | --- | --- | --- | --- | --- | --- | --- | --- | --- | --- | --- | --- |
| Topotecan [Topotecan (TPT)] | first-order kinetics followed by zero-order kinetics | m: 1.663 | 21.67 | 35.29 | 48.80 | 63.65 | 81.23 | 103.66 | 135.22 | 186.99 | 304.53 |  |  |  |  |  |  |  |  | Dm (dose required to produce the median-effect) ([2]; Daoy cells, […]): Dm: 81.23 ng/ml; Log [1/(1/fa − 1)] ([2]; dose 40 ng/ml): −0.64; Fractional kill (fa) ([2]; dose 40 ng/ml): 0.18; Log [1/(1/fa − 1)] ([2]; dose 60 ng/ml): −0.08; Fractional kill (fa) ([2]; dose 60 ng/ml): 0.46; Log [1/(1/fa − 1)] ([2]; dose 80 ng/ml): 0.04; Fractional kill (fa) ([2]; dose 80 ng/ml): 0.52; Log [1/(1/fa − 1)] ([2]; dose 200 ng/ml): 0.59; Fractional kill (fa) ([2]; dose 200 ng/ml): 0.80; Log [1/(1/fa − 1)] ([2]; dose 400 ng/ml): 1.15; Fractional kill (fa) ([2]; dose 400 ng/ml): 0.93; therapeutic efficacy (Kaplan-Meier, tumor ≧1000 mg as endpoint) (SW480 (colon) tumors; listed as Free TPT): inferior to the liposomal formulations; therapeutic efficacy (Kaplan-Meier, tumor ≧1000 mg as endpoint) (SW480 (colon) tumors; listed as free TPT): more efficacious for colon cancer |
| CC[C@]1(O)C[C@H]2CN(CCc3c([nH]c4ccccc34)[C@@](C(=O)OC)(c3cc4c(cc3OC)N(C=O)[C@H]3[C@@](O)(C(=O)OC)[C@H](OC(C)=O)[C@]5(CC)C=CCN6CC[C@]43[C@@H]65)C2)C1 [Vincristine (VCR), Vincristine] | zero-order kinetics | m: 1.926 | 1.76 | 2.68 | 3.55 | 4.46 | 5.50 | 6.79 | 8.55 | 11.31 | 17.22 | 7.64 | 300 (≈ 247 µg/mL) | 10 (≈ 8.25 µg/mL) | 2510 ± 460 | 1370 ± 340 | 1.73 ± 0.3 | 0.273 | 125 | logP [3]: 2.97; logD ([3]; pH 6): 1.2; logD ([3]; pH 8): 2.81; MTD [4]: 1.5 mg/kg; IC50 ([2]; Homo sapiens, Daoy, read-out: Dm (dose required to produce the median-effect)): 5.51 ng/mL (≈ 6.67 nM); Log [1/(1/fa − 1)] ([2]; dose 1 ng/ml): −1.43; Fractional kill (fa) ([2]; dose 1 ng/ml): 0.04; Log [1/(1/fa − 1)] ([2]; dose 2 ng/ml): −0.93; Fractional kill (fa) ([2]; dose 2 ng/ml): 0.11; Log [1/(1/fa − 1)] ([2]; dose 4 ng/ml): −0.36; Fractional kill (fa) ([2]; dose 4 ng/ml): 0.30; Log [1/(1/fa − 1)] ([2]; dose 8 ng/ml): 0.65; Fractional kill (fa) ([2]; dose 8 ng/ml): 0.82; Log [1/(1/fa − 1)] ([2]; dose 24 ng/ml): 1.07; Fractional kill (fa) ([2]; dose 24 ng/ml): 0.92 |
| CC[C@@]1(O)C(=O)OCc2c1cc1n(c2=O)Cc2cc3c(CN(C)C)c(O)ccc3nc2-1 [Topotecan (TPT), Topotecan] |  |  |  |  |  |  |  |  |  |  |  | 7.65 | 3600 (≈ 1520 µg/mL) | 200 (≈ 84.3 µg/mL) | 2700 ± 910 | 3980 ± 1040 | 0.6 ± 0.07 | 1.28 | 61.8 | Non-polar/polar surface area ratio [3]: 2.81; lactone ratio of TPT [5]: 9% |

From patent US20130052259A1, “LIPOSOMES COMPRISING AMPHIPATHIC DRUGS AND METHOD FOR THEIR PREPARATION” (priority 2010, published 2013)
